According to the supplement of paper PMC10307832:

Columns and labels:
Assay in all cases: relative viability (nuclei count vs DMSO), 5 days (fraction); higher = more cells survive
IA-LM = tested on: IA-LM
Summary of the method: (§1)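 Lung cancer cell lines in 1536-well plates were dosed by pin tool the day after seeding, either with one drug alone or with a fixed anchor-drug dose plus five library-drug doses (not always all listed) in √10 steps. After 5 days, cells were fixed and their nuclei stained in one step (final 0.05% Triton X-100, 1% formaldehyde, 1 ug/ml Hoechst), then counted on 4× images. Relative viability is the nuclei count in treated wells divided by that in vehicle wells. Values are medians of duplicate plates.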

NCI-H1299 = tested on: NCI-H1299
Summary of the method: as §1

EKVX = tested on: EKVX
Summary of the method: as §1

EBC-1 = tested on: EBC-1
Summary of the method: as §1

Calu-6 = tested on: Calu-6
Summary of the method: as §1

NCI-H1703 = tested on: NCI-H1703
Summary of the method: as §1

ChaGo-K-1 = tested on: ChaGo-K-1
Summary of the method: as §1

LC-2-ad = tested on: LC-2-ad
Summary of the method: as §1

NCI-H1666 = tested on: NCI-H1666
Summary of the method: as §1

A549 = tested on: A549
Summary of the method: as §1

Cc1csc(=NC2CCCCC2)n1/N=C/c1ccc(O)c(O)c1O [MIM1] + CC(C)C[C@H](NC(=O)[C@H](Cc1ccccc1)NC(=O)c1cnccn1)B(O)O [Bortezomib] (partner 0.002 µM)
relative viability (IA-LM; first compound 0.2 µM): 0.754 | relative viability (IA-LM; first compound 0.6325 µM): 0.792 | relative viability (IA-LM; first compound 2 µM): 0.783 | relative viability (IA-LM; first compound 6.325 µM): 0.275 | relative viability (IA-LM; first compound 20 µM): 0.0874 | relative viability (NCI-H1299; first compound 0.2 µM): 1.01 | relative viability (NCI-H1299; first compound 0.6325 µM): 1.03 | relative viability (NCI-H1299; first compound 2 µM): 0.999 | relative viability (NCI-H1299; first compound 6.325 µM): 0.965 | relative viability (NCI-H1299; first compound 20 µM): 0.994 | relative viability (EKVX; first compound 0.2 µM): 1.03 | relative viability (EKVX; first compound 0.6325 µM): 1.16 | relative viability (EKVX; first compound 2 µM): 0.991 | relative viability (EKVX; first compound 6.325 µM): 0.601 | relative viability (EKVX; first compound 20 µM): 0.33 | relative viability (EBC-1; first compound 0.2 µM): 0.496 | relative viability (EBC-1; first compound 0.6325 µM): 0.569 | relative viability (EBC-1; first compound 2 µM): 0.647 | relative viability (EBC-1; first compound 6.325 µM): 0.324 | relative viability (EBC-1; first compound 20 µM): 0.242 | relative viability (Calu-6; first compound 0.2 µM): 1.05 | relative viability (Calu-6; first compound 0.6325 µM): 1.1 | relative viability (Calu-6; first compound 2 µM): 0.923 | relative viability (Calu-6; first compound 6.325 µM): 0.289 | relative viability (Calu-6; first compound 20 µM): 0.203 | relative viability (NCI-H1703; first compound 0.2 µM): 0.386 | relative viability (NCI-H1703; first compound 0.6325 µM): 0.358 | relative viability (NCI-H1703; first compound 2 µM): 0.318 | relative viability (NCI-H1703; first compound 6.325 µM): 0.155 | relative viability (NCI-H1703; first compound 20 µM): 0.133 | relative viability (ChaGo-K-1; first compound 0.2 µM): 1.03 | relative viability (ChaGo-K-1; first compound 0.6325 µM): 0.972 | relative viability (ChaGo-K-1; first compound 2 µM): 1.06 | relative viability (ChaGo-K-1; first compound 6.325 µM): 0.729 | relative viability (ChaGo-K-1; first compound 20 µM): 0.29 | relative viability (LC-2-ad; first compound 0.2 µM): 1.06 | relative viability (LC-2-ad; first compound 0.6325 µM): 0.545 | relative viability (LC-2-ad; first compound 2 µM): 0.986 | relative viability (LC-2-ad; first compound 6.325 µM): 0.383 | relative viability (LC-2-ad; first compound 20 µM): 0.201 | relative viability (NCI-H1666; first compound 0.2 µM): 0.863 | relative viability (NCI-H1666; first compound 0.6325 µM): 0.916 | relative viability (NCI-H1666; first compound 2 µM): 0.722 | relative viability (NCI-H1666; first compound 6.325 µM): 0.568 | relative viability (NCI-H1666; first compound 20 µM): 0.249

Nc1cccc2c1CN(C1CCC(=O)NC1=O)C2=O (centres undefined) [Lenalidomide] + CC(C)C[C@H](NC(=O)[C@H](Cc1ccccc1)NC(=O)c1cnccn1)B(O)O [Bortezomib] (partner 0.002 µM)
relative viability (IA-LM; first compound 0.253 µM): 0.946 | relative viability (IA-LM; first compound 0.8 µM): 0.753 | relative viability (IA-LM; first compound 2.53 µM): 0.884 | relative viability (IA-LM; first compound 8 µM): 0.764 | relative viability (NCI-H1299; first compound 0.253 µM): 1.03 | relative viability (NCI-H1299; first compound 0.8 µM): 1.01 | relative viability (NCI-H1299; first compound 2.53 µM): 1.06 | relative viability (NCI-H1299; first compound 8 µM): 1.06 | relative viability (EKVX; first compound 0.253 µM): 1.04 | relative viability (EKVX; first compound 0.8 µM): 0.805 | relative viability (EKVX; first compound 2.53 µM): 1.17 | relative viability (EKVX; first compound 8 µM): 0.856 | relative viability (EBC-1; first compound 0.253 µM): 0.653 | relative viability (EBC-1; first compound 0.8 µM): 0.589 | relative viability (EBC-1; first compound 2.53 µM): 0.684 | relative viability (EBC-1; first compound 8 µM): 0.564 | relative viability (Calu-6; first compound 0.253 µM): 1.04 | relative viability (Calu-6; first compound 0.8 µM): 1.01 | relative viability (Calu-6; first compound 2.53 µM): 0.997 | relative viability (Calu-6; first compound 8 µM): 1.06 | relative viability (NCI-H1703; first compound 0.253 µM): 0.231 | relative viability (NCI-H1703; first compound 0.8 µM): 0.399 | relative viability (NCI-H1703; first compound 2.53 µM): 0.328 | relative viability (NCI-H1703; first compound 8 µM): 0.47 | relative viability (ChaGo-K-1; first compound 0.253 µM): 1.07 | relative viability (ChaGo-K-1; first compound 2.53 µM): 1 | relative viability (ChaGo-K-1; first compound 8 µM): 1.29 | relative viability (LC-2-ad; first compound 0.253 µM): 0.979 | relative viability (LC-2-ad; first compound 0.8 µM): 1.04 | relative viability (LC-2-ad; first compound 2.53 µM): 1.03 | relative viability (LC-2-ad; first compound 8 µM): 1.21 | relative viability (NCI-H1666; first compound 0.253 µM): 0.816 | relative viability (NCI-H1666; first compound 0.8 µM): 0.544 | relative viability (NCI-H1666; first compound 2.53 µM): 0.813 | relative viability (NCI-H1666; first compound 8 µM): 0.762

Cc1cn(-c2cc(NC(=O)c3ccc(C)c(Nc4nccc(-c5cccnc5)n4)c3)cc(C(F)(F)F)c2)cn1 [Nilotinib] + Cc1nc(NC(=O)N2CCC[C@H]2C(N)=O)sc1-c1ccnc(C(C)(C)C(F)(F)F)c1 [Alpelisib] (partner 2 µM)
relative viability (IA-LM; first compound 0.001 µM): 0.653 | relative viability (IA-LM; first compound 0.003162 µM): 0.679 | relative viability (IA-LM; first compound 0.01 µM): 0.781 | relative viability (IA-LM; first compound 0.03162 µM): 0.606 | relative viability (IA-LM; first compound 0.1 µM): 0.963 | relative viability (A549; first compound 0.001 µM): 0.721 | relative viability (A549; first compound 0.003162 µM): 0.817 | relative viability (A549; first compound 0.01 µM): 1.02 | relative viability (A549; first compound 0.03162 µM): 0.543 | relative viability (A549; first compound 0.1 µM): 0.649 | relative viability (EKVX; first compound 0.001 µM): 0.813 | relative viability (EKVX; first compound 0.003162 µM): 1.13 | relative viability (EKVX; first compound 0.01 µM): 1.29 | relative viability (EKVX; first compound 0.03162 µM): 0.909 | relative viability (EKVX; first compound 0.1 µM): 1.02 | relative viability (EBC-1; first compound 0.001 µM): 0.787 | relative viability (EBC-1; first compound 0.003162 µM): 0.796 | relative viability (EBC-1; first compound 0.01 µM): 0.811 | relative viability (EBC-1; first compound 0.03162 µM): 0.566 | relative viability (EBC-1; first compound 0.1 µM): 0.689 | relative viability (Calu-6; first compound 0.001 µM): 1.11 | relative viability (Calu-6; first compound 0.01 µM): 1.03 | relative viability (Calu-6; first compound 0.03162 µM): 0.989 | relative viability (Calu-6; first compound 0.1 µM): 0.958 | relative viability (NCI-H1703; first compound 0.001 µM): 0.338 | relative viability (NCI-H1703; first compound 0.003162 µM): 0.249 | relative viability (NCI-H1703; first compound 0.01 µM): 0.171 | relative viability (NCI-H1703; first compound 0.03162 µM): 0.166 | relative viability (NCI-H1703; first compound 0.1 µM): 0.175 | relative viability (LC-2-ad; first compound 0.001 µM): 0.876 | relative viability (LC-2-ad; first compound 0.003162 µM): 1 | relative viability (LC-2-ad; first compound 0.01 µM): 1.03 | relative viability (LC-2-ad; first compound 0.03162 µM): 0.918 | relative viability (LC-2-ad; first compound 0.1 µM): 0.833 | relative viability (NCI-H1666; first compound 0.001 µM): 0.877 | relative viability (NCI-H1666; first compound 0.003162 µM): 1.14 | relative viability (NCI-H1666; first compound 0.01 µM): 0.956 | relative viability (NCI-H1666; first compound 0.03162 µM): 0.831 | relative viability (NCI-H1666; first compound 0.1 µM): 0.856
